Laboratory results taken from patent US11976061B2, “Preparation of benzimidazolone derivatives as novel diacylglyceride O-acyltransferase 2 inhibitors” (Merck Sharp & Dohme LLC, priority 2020, dated 2024).
Like-named read-outs stand apart in the source and are kept apart here.

Biological target: T1, human DGAT2 (hDGAT2) (Homo sapiens, UniProt Q96PD7)
T1 construct: made in house; host or cells: Sf-9 insect cells (baculovirus), membrane fraction
T1 sequence (Q96PD7 1-388): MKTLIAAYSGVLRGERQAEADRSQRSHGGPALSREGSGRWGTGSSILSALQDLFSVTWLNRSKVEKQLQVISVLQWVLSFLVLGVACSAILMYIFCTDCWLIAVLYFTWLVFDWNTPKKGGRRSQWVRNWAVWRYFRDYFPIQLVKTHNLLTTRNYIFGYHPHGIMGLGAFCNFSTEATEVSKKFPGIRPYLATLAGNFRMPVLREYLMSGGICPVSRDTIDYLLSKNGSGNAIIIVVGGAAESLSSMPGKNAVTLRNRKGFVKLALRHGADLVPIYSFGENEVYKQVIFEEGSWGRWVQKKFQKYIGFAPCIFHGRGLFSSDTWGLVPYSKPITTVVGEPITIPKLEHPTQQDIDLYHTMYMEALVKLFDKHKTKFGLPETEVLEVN
Experiment: DGAT2 Enzymatic Activity Assay
Format: biochemical
Conditions: membrane prep of Sf-9 cells expressing hDGAT2, 25 μM diolein, 5 μM 13C oleoyl-CoA, 13C18-triolein by LC/MS/MS
Description: Insect Cell Expression and Membrane Preparation
Sf-9 insect cells were maintained in Grace's insect cell culture medium with 10% heated-inactivated fetal bovine serum, 1% Pluronic F-68 and 0.14 μg/ml Kanamycine sulfate at 27° C. in a shaker incubator. After infection with untagged baculovirus expressing human DGAT2 (hDGAT2) at multiplicity of infection (MOI) 3 for 48 hours, cells were harvested. Cell pellets were suspended in buffer containing 10 mM Tris-HCl pH 7.5, 1 mM EDTA, 250 mM sucrose and Complete Protease Inhibitor Cocktail (Sigma Aldrich), and sonicated on ice. Cell debris were removed by centrifugation at 2000×g for 15 minutes. Membrane fractions were isolated by ultracentrifugation (100,000×g), resuspended in the same buffer, and frozen (−80° C.) for later use. The protein concentration was determined with the Pierce™ BCA Protein Assay Kit (Thermo Fisher Scientific). Expression of protein levels was analyzed by immunoblotting with rabbit anti-DGAT2 antibody (Abcam, ab102831) and donkey anti-rabbit IgG H&L Alexa Fluor® 647 (Abcam, ab150075) followed by detection using Typhoon FLA9000 (GE Healthcare).
LC/MS/MS analyses were performed using Thermal Fisher's LX4-TSQ Vantage system. This system consists of an Agilent binary high-performance liquid chromatography (HPLC) pump and a TSQ Vantage triple quadrupole MS/MS instrument. For each sample, 2 μL samples from the top organic layer of in-plate liquid-liquid extraction were injected onto a Thermo Betabasic C4 column (2.1 mm×20 mm, 5 μm particle size). The samples were then eluted using the following conditions; mobile phase: Isopropanol:acetonitrile/10 mM ammonium formate=50/35/15 (v/v/v), flow rate: 0.8 mL/min, temperature: 25° C. Data was acquired in positive mode using a heated electrospray ionization (HESI) interface. The operational parameters for the TSQ Vantage MS/MS instrument were a spray voltage of 3000 V, capillary temperature of 280° C., vaporizer temperature 400° C., sheath gas 45 arbitrary unit, Aux gas 10 arbitrary units, S-lens 165 and collision gas 1.0 mTorr. […] (SRM) chromatograms of ^13C18-triolein (Q1: 920.8>Q3: 621.3) and internal standard ^13C21-triolein (Q1: 923.8>Q3: 617.3) were collected for 33 sec. The peak area was integrated by Xcalibur Quan software. The ratio between the ^13C18triolein generated in the reaction and spiked in internal standard ^13C21-triolein was used to generate percentage inhibition and IC50 values. Compound percentage inhibition was calculated by the following formula: Inhibition %=1−[(compound response−low control)/(high control−low control)]×100%. Potent compounds were titrated and IC50 were calculated by 4 parameter sigmoidal curve fitting formula.
DGAT2 Enzymatic Activity Assay
DGAT2 activity was determined by measuring the amount of enzymatic product ^13C18-triolein (^13C-1,2,3-Tri(cis-9-octadecenoyl)glycerol) using the membrane prep mentioned above. The assay was carried out in ABgene 384-well assay plates in a final volume of 25 μL at rt. The assay mixture contained the following: assay buffer (100 mM Tris·Cl, pH 7.0, 20 mM MgCl2, 5% ethanol), 25 μM of diolein, 5 μM of ^13C oleoyl-CoA and 8 ng/μL of DGAT2 membrane.

Compound	IC50 (read-out: Human DGAT2 IC50) [nM]	IC50 (read-out: DGAT2 IC50) [nM]
CC(n1c(=O)n(-c2cc(OC(F)F)ccc2F)c2ccc(C(=O)NC3(C)CS(=O)(=O)C3)cc21)C(C)(C)O (single isomer, unassigned) [EX-65a, 1-(5-(difluoromethoxy)-2-fluorophenyl)-3-(3-hydroxy-3-methylbutan-2-yl)-N-(3-methyl-1,1-dioxidothietan-3-yl)-2-oxo-2,3-dihydro-1H-benzo[d]imidazole-5-carboxamide]	53	
CC(n1c(=O)n(-c2cc(OC(F)F)ccc2F)c2ccc(C(=O)NC3(C)CS(=O)(=O)C3)cc21)C(C)(C)O (single isomer, unassigned) [EX-65b, 1-(5-(difluoromethoxy)-2-fluorophenyl)-3-(3-hydroxy-3-methylbutan-2-yl)-N-(3-methyl-1,1-dioxidothietan-3-yl)-2-oxo-2,3-dihydro-1H-benzo[d]imidazole-5-carboxamide]	0.7	
CC(C(N)=O)n1c(=O)n(-c2cccc(OC(F)F)c2)c2ccc(C(=O)NC3(C)CCS(=O)(=O)CC3)cc21 (single isomer, unassigned) [EX-85a, 3-(1-amino-1-oxopropan-2-yl)-1-(3-(difluoromethoxy)phenyl)-N-(4-methyl-1,1-dioxidotetrahydro-2H-thiopyran-4-yl)-2-oxo-2,3-dihydro-1H-benzo[d]imidazole-5-carboxamide]	551	
CC(C(N)=O)n1c(=O)n(-c2cccc(OC(F)F)c2)c2ccc(C(=O)NC3(C)CCS(=O)(=O)CC3)cc21 (single isomer, unassigned) [EX-85b, 3-(1-amino-1-oxopropan-2-yl)-1-(3-(difluoromethoxy)phenyl)-N-(4-methyl-1,1-dioxidotetrahydro-2H-thiopyran-4-yl)-2-oxo-2,3-dihydro-1H-benzo[d]imidazole-5-carboxamide]	1750	
CC(C(F)F)n1c(=O)n(-c2cccc(OC(F)F)c2)c2ccc(C(=O)NC3(C)CCS(=O)(=O)CC3)cc21 (single isomer, unassigned) [Example 45a, 1-(3-(Difluoromethoxy)phenyl)-3-(1,1-difluoropropan-2-yl)-N-(4-methyl-1,1-dioxidotetrahydro-2H-thiopyran-4-yl)-2-oxo-2,3-dihydro-1H-benzo[d]imidazole-5-carboxamide]		12
CC(C(F)F)n1c(=O)n(-c2cccc(OC(F)F)c2)c2ccc(C(=O)NC3(C)CCS(=O)(=O)CC3)cc21 (single isomer, unassigned) [Example 45b, 1-(3-(Difluoromethoxy)phenyl)-3-(1,1-difluoropropan-2-yl)-N-(4-methyl-1,1-dioxidotetrahydro-2H-thiopyran-4-yl)-2-oxo-2,3-dihydro-1H-benzo[d]imidazole-5-carboxamide]		101
CCC(C)n1c(=O)n(-c2cccc(OC(F)F)c2)c2ccc(C(=O)NC3(C)CS(=O)(=O)C3)cc21 (single isomer, unassigned) [Example 46a, 3-(sec-butyl)-1-(3-(difluoromethoxy)phenyl)-N-(3-methyl-1,1-dioxidothietan-3-yl)-2-oxo-2,3-dihydro-1H-benzo[d]imidazole-5-carboxamide]		81
CCC(C)n1c(=O)n(-c2cccc(OC(F)F)c2)c2ccc(C(=O)NC3(C)CS(=O)(=O)C3)cc21 (single isomer, unassigned) [Example 46b, 3-(sec-butyl)-1-(3-(difluoromethoxy)phenyl)-N-(3-methyl-1,1-dioxidothietan-3-yl)-2-oxo-2,3-dihydro-1H-benzo[d]imidazole-5-carboxamide]		92
CC(n1c(=O)n(-c2cc(OC(F)F)ccc2F)c2ccc(C(=O)NC3(C)CCS(=O)(=O)CC3)cc21)C(C)(C)O (single isomer, unassigned) [Example 66a, 1-(5-(difluoromethoxy)-2-fluorophenyl)-3-(3-hydroxy-3-methylbutan-2-yl)-N-(4-methyl-1,1-dioxidotetrahydro-2H-thiopyran-4-yl)-2-oxo-2,3-dihydro-1H-benzo[d]imidazole-5-carboxamide]		1.1

Results, then the compound that gave them:

IC50 (read-out: Human DGAT2 IC50) [nM]	IC50 (read-out: DGAT2 IC50) [nM]	Compound
	16.9	CC(n1c(=O)n(-c2cc(OC(F)F)ccc2F)c2ccc(C(=O)NC3(C)CCS(=O)(=O)CC3)cc21)C(C)(C)O (single isomer, unassigned) [Example 66b, 1-(5-(difluoromethoxy)-2-fluorophenyl)-3-(3-hydroxy-3-methylbutan-2-yl)-N-(4-methyl-1,1-dioxidotetrahydro-2H-thiopyran-4-yl)-2-oxo-2,3-dihydro-1H-benzo[d]imidazole-5-carboxamide]
	1.6	CC(n1c(=O)n(-c2cccc(OC(F)F)c2)c2ccc(C(=O)NC3(C)CCS(=O)(=O)CC3)cc21)C(C)(C)O (single isomer, unassigned) [Example 67a, 1-(3-(difluoromethoxy)phenyl)-3-(3-hydroxy-3-methylbutan-2-yl)-N-(4-methyl-1,1-dioxidotetrahydro-2H-thiopyran-4-yl)-2-oxo-2,3-dihydro-1H-benzo[d]imidazole-5-carboxamide]
	211	CC(n1c(=O)n(-c2cccc(OC(F)F)c2)c2ccc(C(=O)NC3(C)CCS(=O)(=O)CC3)cc21)C(C)(C)O (single isomer, unassigned) [Example 67b, 1-(3-(difluoromethoxy)phenyl)-3-(3-hydroxy-3-methylbutan-2-yl)-N-(4-methyl-1,1-dioxidotetrahydro-2H-thiopyran-4-yl)-2-oxo-2,3-dihydro-1H-benzo[d]imidazole-5-carboxamide]
	4.1	CC(n1c(=O)n(-c2cccc(OCC(F)F)c2)c2ccc(C(=O)NC3(C)CCS(=O)(=O)CC3)cc21)C(C)(C)O (single isomer, unassigned) [Example 68a, 1-(3-(2,2-difluoroethoxy)phenyl)-3-(3-hydroxy-3-methylbutan-2-yl)-N-(4-methyl-1,1-dioxidotetrahydro-2H-thiopyran-4-yl)-2-oxo-2,3-dihydro-1H-benzo[d]imidazole-5-carboxamide]
	1.8	CC(n1c(=O)n(-c2cccc(OCC(F)F)c2)c2ccc(C(=O)NC3(C)CCS(=O)(=O)CC3)cc21)C(C)(C)O (single isomer, unassigned) [Example 68b, 1-(3-(2,2-difluoroethoxy)phenyl)-3-(3-hydroxy-3-methylbutan-2-yl)-N-(4-methyl-1,1-dioxidotetrahydro-2H-thiopyran-4-yl)-2-oxo-2,3-dihydro-1H-benzo[d]imidazole-5-carboxamide]
	9.7	CCOc1cc(-n2c(=O)n(C(C)C(C)(C)O)c3cc(C(=O)NC4(C)CCS(=O)(=O)CC4)ccc32)c(F)cn1 (single isomer, unassigned) [Example 69a, 1-(2-ethoxy-5-fluoropyridin-4-yl)-3-(3-hydroxy-3-methylbutan-2-yl)-N-(4-methyl-1,1-dioxidotetrahydro-2H-thiopyran-4-yl)-2-oxo-2,3-dihydro-1H-benzo[d]imidazole-5-carboxamide]
	3.9	CCOc1cc(-n2c(=O)n(C(C)C(C)(C)O)c3cc(C(=O)NC4(C)CCS(=O)(=O)CC4)ccc32)c(F)cn1 (single isomer, unassigned) [Example 69b, 1-(2-ethoxy-5-fluoropyridin-4-yl)-3-(3-hydroxy-3-methylbutan-2-yl)-N-(4-methyl-1,1-dioxidotetrahydro-2H-thiopyran-4-yl)-2-oxo-2,3-dihydro-1H-benzo[d]imidazole-5-carboxamide]
